Measurements: PMC8298232 (Archives of Toxicology, 2021)
Values joined by “and” are separate entries in the source; they are usually repeats but may differ in a detail not shown here. Equal entries are not always repeated.

Legend:
clinical = type: in vivo, human
Procedure: Furthermore, blood samples were drawn from each volunteer 2, 4, 6, 8, 10, 24, […] 48 h after exposure. In summary, […] blood samples were collected from every volunteer. One volunteer donated two EDTA—Monovettes® (Sarstedt, Nümbrecht, Germany) for every time point. So, for every sampling time one sample was kept as whole blood while the plasma fraction was extracted for the other. In this case, the respective blood vessels were centrifuged at 800 × g for 5 min. The supernatants were transferred to 15 mL conical plastic tubes (Sarstedt, Nümbrecht, Germany). Both blood and plasma samples were stored frozen at − 50 °C until analysis.
Analysis of blood samples was performed according to a previously published method (Denghel and Göen [2021]). In summary, blood proteins and cellular components were precipitated by the addition of ACN. Afterwards, the supernatant was diluted with sodium chloride solution and the investigated analytes were extracted by dispersive liquid–liquid microextraction (DLLME) using a mixture of CH2Cl2 and ACN. […] Variation coefficients ranged from 2 to 9% for precision in series and from 3 to 11% for interday precision. Additionally, relative recovery rates between 80 and 100% were found.
The ln-transformed mean excretion curve was plotted against the time (in h) to obtain the slope (kel, elimination rate constant) and the excretion half-life (t1/2) as follows: t1/2=ln2/|kel|.

[1] = Distribution between blood compartments (plasma to blood ratio); type: in vivo, human
Procedure: Furthermore, blood samples were drawn from each volunteer 2, 4, 6, 8, 10, 24, 34 and 48 h after exposure. In summary, eight blood samples were collected from every volunteer. […] So, for every sampling time one sample was kept as whole blood while the plasma fraction was extracted for the other. In this case, the respective blood vessels were centrifuged at 800 × g for 5 min. The supernatants were transferred to 15 mL conical plastic tubes (Sarstedt, Nümbrecht, Germany). Both blood and plasma samples were stored frozen at − 50 °C until analysis.
Therefore, the concentrations of the analytes in whole blood and plasma were determined according to the SOP (Denghel and Göen [2021]) and an established procedure (see supplemental material), respectively. The results for whole blood and plasma were plotted against the time points of the respective sampling and the plasma to blood ratios (p/b) were calculated by a simplified approach for estimating the AUC ratios. Therefore, all plasma concentrations (in µg/L) determined were added and divided through the sum of the respective blood concentrations (in µg/L) according to the equation: p/b=∑i=0ncplasma/∑i=0ncblood.
Analysis of plasma samples
For the analysis of plasma samples, the procedure for blood samples was adjusted as follows: Initially, CPD plasma was equilibrated to room temperature and homogenized by manual shaking. Frozen samples of the study participants were thawed, equilibrated to room temperature, and homogenized using a vortex mixer. Aliquots of 1 mL were prepared with 10 µL of the internal standard mix. Afterwards, the plasma proteins were precipitated by the additions of 3 mL ACN with 0.1 % formic acid. The samples were vortex-blended for 1 min and centrifuged for 15 min at 3000 x g. The supernatants were transferred into 25 mL tubes with conical bottom (Sarstedt, Nümbrecht, Germany) and diluted with 4 mL of 1 % sodium chloride solution. Afterwards, a mixture of 800 µL CH 2Cl2 and 800 µL ACN was added to every tube. Again, the samples were vortex - blended for 1 min and centrifuged for 15 min at 3000 x g. The upper organic phases wer e transferred into 3 mL screw vials (Müller + Krempel AG, Bülach, Switzerland) and dried under nitrogen. The residues were derivatized with 90 µL BSA + 5 % TMCS. After 30 min reaction time at room temperature, 10 µL of 10 % TSIM were added. The samples wer e transferred to micro inserts, sealed with crimping caps, and incubated at 40 °C for 90 min. Finally, measurement was performed using GC -MS/MS

[2] = Shares of conjugated analytes in urine (analysis with and without β-glucuronidase/arylsulfatase hydrolysis); details: for Conjugation ratio: with vs without hydrolysis
Procedure: The analysis of urine samples was performed with and without hydrolysis for one volunteer to determine the shares of analytes conjugated with glucuronic acid or sulfate. Initially, urine samples were thawed, equilibrated to room temperature and homogenized using a vortex mixer. Afterwards, the Monovettes® were centrifuged for 2 min at 1600 g to sediment solid residue in the sample. 1 mL of the sample was transferred into a 15 mL conical tube (Sarstedt, Nümbrecht, Germany). Without hydrolysis, 1 mL of the urine samples was prepared with 200 μL of ammonium acetate buffer (1 mol/L, pH 6) and 10 μL of the internal standard mix solution. […] Finally, the calculated analyte excretion rates (see Sect. “Evaluation of renal elimination”) obtained with hydrolysis were correlated with the ones prepared without hydrolysis for every detected compound. A linear curve fit was applied to the plotted data points. The resulting slope of the regression line described the percentage of free and therefore unconjugated analyte.
Therefore, urine samples of one volunteer were analyzed with and without addition of β-glucuronidase/arylsulfatase from Helix pomatia and incubation according to the standard procedure previously published (Denghel and Göen [2020]) (see Sect. “Analysis of urine samples without hydrolysis”).

[3] = Renal elimination kinetics of UV 328 and its metabolites in urine after single oral exposure; details: for REmax (maximum renal excretion rate): human urine with hydrolysis; for REmax (maximum renal excretion rate) / FUE after 24 h (urinary excretion factor as dose equivalents of UV 328) / FUE after 72 h ≙ Fraction of oral dose: mean ± SD; for share of cumulative amounts of all quantified analytes in urine: urine with hydrolysis, cumulative within 72 h; for Tmax / half-life: both, human, urine, po; for half-life: t½ (renal elimination half-life); for FUE after 24 h (urinary excretion factor as dose equivalents of UV 328): 0–24 h; for FUE after 72 h ≙ Fraction of oral dose: 0–72 h
Procedure: Three volunteers (two men and one person, mean age 37.3 ± 15.5, mean body weight 81.3 ± 6.1 kg) were selected for the in vivo study. Prior to oral exposure, every volunteer collected one urine sample. Additionally, one blood sample was taken using EDTA-Monovettes® (Sarstedt, Nümbrecht, Germany) before exposure. […] Thereby, a safety factor of 100 was considered for single application and interspecies differences, resulting in a dose of 0.3 mg/kg bw. […] Participants collected the total urine volume of each void separately throughout 72 h and recorded the respective sampling times. […] The urine samples were volumetrically measured for each sampling point, aliquoted in urine Monovettes® (Sarstedt, Nümbrecht, Germany) and stored frozen at − 50 °C until analysis.
The urine samples were processed according to a previously published procedure (Denghel and Göen [2020]). In brief, urine samples were enzymatically hydrolyzed using β-glucuronidase/arylsulfatase from Helix pomatia. […] The extracts were derivatized with BSA/TMCS and TSIM and finally measured via GC–MS/MS with advanced electron ionization (AEI).
Thereby, RE,i is the renal excretion rate for the urine sample i (in µg/h), ci is the analyte concentration in the urine sample (in µg/L), Vi is the volume of the urine sample (in L) and ti and ti-1 are the elapsed time values (in h) of the sample and the previous sample, respectively.
Afterwards, the time course of the excretion rates RE,i was recorded for the middle of the respective sampling period (ti,m in h) according to the equation: ti,m=ti-1+ti-ti-1/2.
The current excretion rates were plotted as a function of the average time of the respective sampling period for every volunteer and each analyte.
Finally, mean excretion curves were calculated by taking the average of related urinary sampling times and the corresponding renal excretion rates (in µg/h) for all volunteers’ samples (arithmetic mean ± standard deviation). The mean cumulative excreted amount (in µmol) of all volunteers was obtained by addition of each molar excreted amount: ∑i=0nci×Vi/M.
Thereby, ci is the concentration of the metabolite in urine (in µg/L), Vi is the volume of the respective urine sample (in L) and M is the molar mass of the respective metabolite (in µg/µmol).
Afterwards, excretion half-lives (t1/2) (in h) were ascertained as described in Sect. “Evaluation of blood kinetics” by plotting the current excretion rates as function of time.

[4] = Medical laboratory values (liver, kidney, LDH, CK) of volunteers before, during and one week after oral exposure; type: in vivo, human; details: third subject, seven days after exposure; not attributed to the exposure by the investigators
Procedure: Because of potential confounding effects on those liver and kidney laboratory parameters and their potential to indicate massive cell destruction, lactate dehydrogenase (LDH) and creatinine kinase (CK) were included in the medical blood work as well. All medical laboratory values were carried out by an accredited medical laboratory. Thus, initial pathological laboratory values for liver or kidney function were defined as further exclusion criteria for study participation. In case of occurrence of relevant pathological medical values for liver or kidney function during the ongoing study which could be attributable to the study exposure, no further subjects were to be included until further clarification, potentially leading to a full cessation of the whole study.

beagle dogs [5] = details: ref US EPA [2009]; cited from earlier work
animal studies = details: oral exposure, ref CIBA-GEIGY [1978], Kim et al. [2011a]; cited from earlier work
rats = details: ref ECHA [2013], Geigy [1970], Til et al. [1968]; cited from earlier work
beagle dogs [6] = details: ref ECHA [2013], Geigy [1970], Til et al. [1968]; cited from earlier work
[7] = both sexes, human, in vivo, po, 0.3 mg/kg
[8] = both sexes, human, in vivo, po, 0.3 mg/kg, t1/2 (0–24 h) in blood
[9] = both sexes, human, in vivo, po, 0.3 mg/kg, t1/2 (24–48 h) in blood
[10] = both sexes, human, in vivo, po, tmax in blood
[11] = blood samples 8 h after exposure, without hydrolysis, n = 3
[12] = both sexes, human, whole blood, po, 0.3 mg/kg bw, human whole blood, oral 0.3 mg UV 328/kg body weight, mean ± SD, n = 3
[13] = both sexes, human, whole blood, po, 0.3 mg/kg bw, human whole blood, oral 0.3 mg UV 328/kg body weight, n = 3, read-out: tmax in blood
[14] = human whole blood, oral 0.3 mg UV 328/kg body weight, mean ± SD, n = 3
[15] = both sexes, human, whole blood, po, 0.3 mg/kg, first elimination phase, human blood, oral 0.3 mg/kg bw, n = 3, read-out: t1/2 (0–24 h) in blood (converted)
[16] = both sexes, human, whole blood, po, 0.3 mg/kg, second elimination phase, human blood, oral 0.3 mg/kg bw, n = 3, read-out: t1/2 (24–48 h) in blood (converted)
[17] = sum of plasma concentrations / sum of blood concentrations, one volunteer (n = 1)
[18] = 0.3 mg/kg, human urine, monophasic, oral 0.3 mg/kg bw, n = 3
[19] = post-dosage human urine, collected until 72 h

CCC(C)(C)c1cc(C(C)(C)C(C)=O)cc(-n2nc3ccccc3n2)c1O [UV 328-4/3-CO, 2-(2H-benzotriazol-2-yl)-4-(2-methylbutan-3-on-2-yl)-6-(tert-pentyl)phenol]
concentration at 24 h (clinical; [7]): 0.9 ± 0.3 ng/mL | half-life (clinical; [8]): 8.3 h | half-life (clinical; [9]): 16.4 h | Tmax (clinical; [10]): 8 h | p/b ratio (plasma to blood ratio) ([1]; human, in vivo): 3.2 | Conjugation ratio ([2]; urine of one volunteer): 100%

CCC(C)(C)c1cc(-n2nc3ccccc3n2)c(O)c(C(C)(C)CC)c1 [UV 328, 2-(2H-Benzotriazol-2-yl)-4,6-di-tert-pentylphenol]
share of all detected parameters in blood (clinical; [11]): 95.2 ± 2.0% | concentration at 24 h (clinical; [7]): 83.1 ± 54.2 ng/mL | concentration at 48 h (clinical; [7]): 29.1 ± 19.4 ng/mL | half-life (clinical; [8]): 5.3 h | half-life (clinical; [9]): 16.3 h | Cmax (clinical; [12]): 736 ± 489 ng/mL | Tmax (clinical; [13]): 8 h | cmax in blood (clinical; [14]): 736.2 ± 488.7 µg/L | REmax (maximum renal excretion rate) ([3]; oral 0.3 mg/kg bw, n = 3): 0.013 ± 0.003 µg/h | share of cumulative amounts of all quantified analytes in urine ([3]; n = 3): 1.0 ± 0.1% | share excreted via urine without conjugation to glucuronic acid or sulfate ([2]; urine of one volunteer): about 84% | slope of the linear regression line (excretion rates without vs with hydrolysis) ([2]; urine of one volunteer, slope = fraction of free analyte): 0.84 | CK value (creatinine kinase) [4]: 6784 U/L | No Observed Adverse Effect Level (NOAEL) (beagle dogs [5]): 30 mg UV 328/kg bw/day | acute toxicity (animal studies): No acute toxicity was observed | toxicity after repeated oral administration (rats): specific target organ toxicity to liver and kidneys | toxicity after repeated oral administration (beagle dogs [6]): specific target organ toxicity to liver and kidneys

CCC(C)(C)c1cc(-n2nc3ccc(O)cc3n2)c(O)c(C(C)(C)CC)c1 [UV 328-BTOH, 2-(2H-5-hydroxybenzotriazol-2-yl)-4,6-(di-tert-pentyl)phenol]
detection in blood samples after exposure (clinical; human, in vivo, po, 0.3 mg/kg): not detected | detection in urine samples after exposure ([3]; in vivo): not detected

CC(=O)C(C)(C)c1cc(-n2nc3ccccc3n2)c(O)c(C(C)(C)C(C)O)c1 (centres unmarked) [UV 328-4/3-CO-6/3-OH, 2-(2H-benzotriazol-2-yl)-4-(2-methylbutan-3-on-2-yl)-6-(3-hydroxy-2-methylbutan-2-yl)phenol]
share among the quantified metabolites in blood (clinical; [11]): 13.7 ± 2.5% | half-life (clinical; both sexes, human, whole blood, oral, 0.3 mg/kg bw, human blood, plateau-shaped elimination curve, phase not specified, read-out: elimination half-life in blood): > 600 h | Cmax (clinical; [12]): 4.95 ± 0.72 ng/mL | Tmax (clinical; [13]): 24 to 34 h | half-life (clinical; [15]): < 600 h | half-life (clinical; [16]): < 600 h | time at which the plateau of blood levels was reached (clinical; human blood, post-dosage): around 10 h | p/b ratio (plasma to blood ratio) [1, 17]: 2.0 | Tmax ([3]; 0.3 mg/kg): 11.3 h | half-life [3, 18]: 53.5 h | REmax (maximum renal excretion rate) ([3]; oral 0.3 mg/kg bw, n = 3): 0.65 ± 0.02 µg/h | FUE after 24 h (urinary excretion factor as dose equivalents of UV 328) ([3]; human urine, n = 3): 0.038 ± 0.010% | FUE after 72 h ≙ Fraction of oral dose ([3]; human urine, n = 3): 0.081% and 0.081 ± 0.018% | t½ (renal elimination half-life) ([3]; human urine, monophasic, oral 0.3 mg/kg bw, n = 3, 0.3 mg/kg): 53.3 h | detection in urine samples after exposure [3, 19]: still detectable in urine after the observed period of 72 h | share of cumulative amounts of all quantified analytes in urine ([3]; n = 3): 65.8 ± 10.9% | Conjugation ratio ([2]; urine of one volunteer): 100%

CCC(C)(C)c1cc(-n2nc3ccccc3n2)c(O)c(C(C)(C)C(C)=O)c1 [UV 328-6/3-CO, 2-(2H-benzotriazol-2-yl)-6-(2-methylbutan-3-on-2-yl)-4-(tert-pentyl)phenol]
plateau concentration in blood (clinical; human blood, plateau until 48 h after exposure): ~0.1 µg/L | cmax in blood (clinical; [14]): < LOQ | detection in urine samples after exposure [3, 19]: not detected

CCC(C)(C)c1cc(-n2nc3ccccc3n2)c(O)c(C(C)(C)C(C)O)c1 (centres unmarked) [UV 328-6/3-OH, 2-(2H-benzotriazol-2-yl)-6-(3-hydroxy-2-methylbutan-2-yl)-4-(tert-pentyl)phenol]
concentration at 24 h (clinical; [7]): 5.2 ± 0.6 ng/mL | half-life (clinical; [8]): 9 h | half-life (clinical; [9]): 17.9 h | Tmax (clinical; [10]): 8 h | tmax in blood (clinical; both, human, in vivo, po): 10 h | p/b ratio (plasma to blood ratio) ([1]; human, in vivo): 2.3 | share excreted via urine without conjugation to glucuronic acid or sulfate ([2]; human, in vivo): about 3% | Conjugation ratio ([2]; urine of one volunteer): 97%

CCC(C)(C)c1cc(C(C)(C)C(C)O)cc(-n2nc3ccccc3n2)c1O (centres unmarked) [UV 328-4/3-OH, 2-(2H-benzotriazol-2-yl)-4-(3-hydroxy-2-methylbutan-2-yl)-6-(tert-pentyl)phenol]
share among the quantified metabolites in blood (clinical; [11]): 19.5 ± 4.9% | Cmax (clinical; [12]): 7.4 ± 0.9 ng/mL | Tmax (clinical; [13]): 10 h | half-life (clinical; [15]): 5.9 h | half-life (clinical; [16]): 15.7 h | concentration at 24 h (clinical; both sexes, whole blood, human blood, 24 h after oral 0.3 mg/kg bw, mean ± SD, n = 3, read-out: mean blood level 24 h after exposure): 1.5 ± 0.5 ng/mL | tmax in blood (clinical; human whole blood, oral 0.3 mg UV 328/kg body weight, n = 3): 8 h | p/b ratio (plasma to blood ratio) [1, 17]: 2.1 | Tmax ([3]; 0.3 mg/kg): 9.3 h | half-life [3, 18]: 46.4 h | REmax (maximum renal excretion rate) ([3]; oral 0.3 mg/kg bw, n = 3): 0.10 ± 0.04 µg/h | FUE after 24 h (urinary excretion factor as dose equivalents of UV 328) ([3]; human urine, n = 3): 0.004 ± 0.001% | FUE after 72 h ≙ Fraction of oral dose ([3]; human urine, n = 3): 0.007 ± 0.003% | share of cumulative amounts of all quantified analytes in urine ([3]; n = 3): 6.1 ± 2.3% | Conjugation ratio ([2]; urine of one volunteer): 100%
